What was measured:
Format in all cases: biochemical
[1] = biological target: human TYK2 catalytic kinase (JH1) domain (Homo sapiens (Human), UniProt P29597); assay: ADP-Glo Kinase Assay, recombinant TYK2 catalytic kinase (JH1) domain; conditions: recombinant JH1 domain 2 nM, 10 μM ATP, JAK3-974 peptide, mean, read-out: TYK2 biochem IC50 (nM) Mean
Experimental: (§1) Compounds of the disclosure were assessed for their ability to inhibit TYK2, JAK1, JAK2, and JAK3 activity. The inhibitory properties of the compounds of the disclosure described herein can be evidenced by testing in any one of the following protocols.
(§2) The kinase activity of recombinantly generated catalytic kinase (also known as JH1) domain of human JAK1, JAK2, JAK3 and TYK2 were evaluated in a plate-based assay using the ADP-Glo™ Kinase Assay platform. Specifically, 4 nM of recombinant JAK1 kinase domain is used to phosphorylate 50 μM of a JAK3-342 (sequence ALVDGYFRLTT) peptide in the presence of 35 μM ATP. Catalytic activities of recombinant JAK2, JAK3 and TYK2 kinase domain (0.2, 0.3 and 2 nM, respectively) are evaluated by the phosphorylation status of the JAK3-974 (50 μM; sequence LPLDKDYYVVR) peptide with the addition of ATP (15, 4 and 10 μM, respectively). The reactions proceed for 100 minutes and the catalytic activity is quantified by first depleting the unused ATP, converting the hydrolyzed ADP into ATP to generate luminescence in a luciferase reaction; which is the basis of the ADP-Glo platform. Compounds are tested at either 10 μM or 1 μM top concentration, 11 points of 3-fold dilution. The data is normalized and the percent activity versus log concentration of compound is fitted with a 4-parameter logistic model to generate a curve and an IC50 value.

[2] = biological target: human JAK3 catalytic kinase (JH1) domain (Homo sapiens (Human), UniProt P52333); assay: ADP-Glo Kinase Assay, recombinant JAK3 catalytic kinase (JH1) domain; conditions: recombinant JH1 domain 0.3 nM, 4 μM ATP, JAK3-974 peptide, mean, read-out: JAK3 biochem IC50 (nM) Mean
Sequence of human JAK3 catalytic kinase (JH1) domain (P52333 822-1111): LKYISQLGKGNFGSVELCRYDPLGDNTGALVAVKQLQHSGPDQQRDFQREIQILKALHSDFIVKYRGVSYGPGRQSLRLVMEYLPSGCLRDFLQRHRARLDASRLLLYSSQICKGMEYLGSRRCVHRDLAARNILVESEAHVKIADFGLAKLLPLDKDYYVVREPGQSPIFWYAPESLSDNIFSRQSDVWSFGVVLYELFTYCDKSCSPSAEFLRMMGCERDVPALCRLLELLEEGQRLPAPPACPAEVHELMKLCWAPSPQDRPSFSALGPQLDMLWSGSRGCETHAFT
Experimental: as §1, §2

[3] = biological target: human JAK2 catalytic kinase (JH1) domain (Homo sapiens (Human), UniProt O60674); assay: ADP-Glo Kinase Assay, recombinant JAK2 catalytic kinase (JH1) domain; conditions: recombinant JH1 domain 0.2 nM, 15 μM ATP, JAK3-974 peptide, mean, read-out: JAK2 biochem IC50 (nM) Mean
Sequence of human JAK2 catalytic kinase (JH1) domain (O60674 849-1124): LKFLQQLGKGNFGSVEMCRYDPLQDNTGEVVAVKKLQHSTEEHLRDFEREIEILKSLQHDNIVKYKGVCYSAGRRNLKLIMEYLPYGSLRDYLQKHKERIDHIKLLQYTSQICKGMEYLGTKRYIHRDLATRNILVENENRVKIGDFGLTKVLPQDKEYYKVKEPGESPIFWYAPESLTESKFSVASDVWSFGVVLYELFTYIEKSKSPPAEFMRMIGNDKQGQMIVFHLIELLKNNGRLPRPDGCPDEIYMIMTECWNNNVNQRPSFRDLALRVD
Experimental: as §1, §2

[4] = biological target: human JAK1 catalytic kinase (JH1) domain (Homo sapiens (Human), UniProt P23458); assay: ADP-Glo Kinase Assay, recombinant JAK1 catalytic kinase (JH1) domain; conditions: recombinant JH1 domain 4 nM, 35 μM ATP, JAK3-342 peptide, mean, read-out: JAK1 biochem IC50 (nM) Mean
Sequence of human JAK1 catalytic kinase (JH1) domain (P23458 875-1153): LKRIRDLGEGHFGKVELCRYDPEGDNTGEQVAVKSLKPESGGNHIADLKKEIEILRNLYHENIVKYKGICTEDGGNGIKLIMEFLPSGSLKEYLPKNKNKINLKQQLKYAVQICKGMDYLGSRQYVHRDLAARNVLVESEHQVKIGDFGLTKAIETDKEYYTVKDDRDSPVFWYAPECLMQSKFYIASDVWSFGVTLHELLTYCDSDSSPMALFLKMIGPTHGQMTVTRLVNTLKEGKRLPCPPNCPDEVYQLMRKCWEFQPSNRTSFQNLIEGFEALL
Experimental: as §1, §2

Sequence of human TYK2 catalytic kinase (JH1) domain (P29597 897-1176): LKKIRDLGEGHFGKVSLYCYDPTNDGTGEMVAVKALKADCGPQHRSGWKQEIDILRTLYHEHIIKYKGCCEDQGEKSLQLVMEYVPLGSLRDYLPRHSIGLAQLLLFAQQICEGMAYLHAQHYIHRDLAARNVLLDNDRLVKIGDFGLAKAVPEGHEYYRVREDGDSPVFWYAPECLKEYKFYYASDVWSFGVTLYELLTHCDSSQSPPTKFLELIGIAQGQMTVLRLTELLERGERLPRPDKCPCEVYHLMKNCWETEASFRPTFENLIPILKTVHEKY

## Cn1cc(-c2cc3c(N4CC5CCC(C4)N5C(=O)[C@@H]4C[C@H]4F)ncnn3c2)cn1 [Example 2, ((1S,2R)-2-fluorocyclopropyl)(3-(6-(1-methyl-1H-pyrazol-4-yl)pyrrolo[2,1-f][1,2,4]triazin-4-yl)-3,8-diazabicyclo[3.2.1]octan-8-yl)methanone]
[1]
  IC50: 4.7 nM
[2]
  IC50: 820 nM
[3]
  IC50: 292 nM
[4]
  IC50: 324 nM

## O=C([C@@H]1CC1(F)F)N1C2CCC1CN(c1ncnn3cc(-c4cnn(C(F)F)c4)cc13)C2 [Example 3, ((S)-2,2-difluorocyclopropyl)(3-(6-(1-(difluoromethyl)-1H-pyrazol-4-yl)pyrrolo[2,1-f][1,2,4]triazin-4-yl)-3,8-diazabicyclo[3.2.1]octan-8-yl)methanone]
[1]
  IC50: 27.8 nM
[2]
  IC50: 6160 nM
[3]
  IC50: 714 nM
[4]
  IC50: 653 nM

## O=C([C@H]1C[C@@H]1F)N1C2CCC1CN(c1ncnn3cc(-c4cnn(C(F)F)c4)cc13)C2 [Example 4, (3-(6-(1-(difluoromethyl)-1H-pyrazol-4-yl)pyrrolo[2,1-f][1,2,4]triazin-4-yl)-3,8-diazabicyclo[3.2.1]octan-8-yl)((1R,2S)-2-fluorocyclopropyl)methanone]
[1]
  IC50: 73.6 nM
[2]
  IC50: 776 nM
[3]
  IC50: 1450 nM
[4]
  IC50: 452 nM

## CC1C(C(=O)N2C3CCC2CN(c2ncnn4cc(-c5cnn(C(F)F)c5)cc24)C3)C1(F)F (centres unmarked) [Example 5, (2,2-difluoro-3-methylcyclopropyl)(3-(6-(1-(difluoromethyl)-1H-pyrazol-4-yl)pyrrolo[2,1-f][1,2,4]triazin-4-yl)-3,8-diazabicyclo[3.2.1]octan-8-yl)methanone]
[1]
  IC50: 93.1 nM
[2]
  IC50: 3700 nM
[3]
  IC50: 3050 nM
[4]
  IC50: 707 nM

## Cn1cc(-c2cc3c(N4CC5CCC(C4)N5C(=O)[C@H]4C[C@@H]4F)ncnn3c2)cn1 [Example 6, ((1R,2S)-2-fluorocyclopropyl)(3-(6-(1-methyl-1H-pyrazol-4-yl)pyrrolo[2,1-f][1,2,4]triazin-4-yl)-3,8-diazabicyclo[3.2.1]octan-8-yl)methanone]
[1]
  IC50: 133 nM
[2]
  IC50: 827 nM
[3]
  IC50: 2260 nM
[4]
  IC50: 682 nM

## O=C(C1C(F)(F)C12CCC2)N1C2CCC1CN(c1ncnn3cc(-c4cnn(C(F)F)c4)cc13)C2 (centres unmarked) [Example 7, (3-(6-(1-(difluoromethyl)-1H-pyrazol-4-yl)pyrrolo[2,1-f][1,2,4]triazin-4-yl)-3,8-diazabicyclo[3.2.1]octan-8-yl)(2,2-difluorospiro[2.3]hexan-1-yl)methanone]
[1]
  IC50: 156 nM
[2]
  IC50: 6300 nM
[3]
  IC50: 3960 nM
[4]
  IC50: 960 nM

## O=C([C@H]1CC1(F)F)N1C2CCC1CN(c1ncnn3cc(-c4cnn(C(F)F)c4)cc13)C2 [Example 8, ((R)-2,2-difluorocyclopropyl)(3-(6-(1-(difluoromethyl)-1H-pyrazol-4-yl)pyrrolo[2,1-f][1,2,4]triazin-4-yl)-3,8-diazabicyclo[3.2.1]octan-8-yl)methanone]
[1]
  IC50: 200 nM
[2]
  IC50: 1690 nM
[3]
  IC50: 3740 nM
[4]
  IC50: 226 nM

## O=C(C1CCC1F)N1C2CCC1CN(c1ncnn3cc(-c4cnn(C(F)F)c4)cc13)C2 (centres unmarked) [Example 9, (3-(6-(1-(difluoromethyl)-1H-pyrazol-4-yl)pyrrolo[2,1-f][1,2,4]triazin-4-yl)-3,8-diazabicyclo[3.2.1]octan-8-yl)(2-fluorocyclobutyl)methanone]
[1]
  IC50: 202 nM
[2]
  IC50: 5780 nM
[3]
  IC50: 5700 nM
[4]
  IC50: 3080 nM

## O=C(C1C(F)(F)C12CC2)N1C2CCC1CN(c1ncnn3cc(-c4cnn(C(F)F)c4)cc13)C2 (centres unmarked) [Example 10, (3-(6-(1-(difluoromethyl)-1H-pyrazol-4-yl)pyrrolo[2,1-f][1,2,4]triazin-4-yl)-3,8-diazabicyclo[3.2.1]octan-8-yl)(2,2-difluorospiro[2.2]pentan-1-yl)methanone]
[1]
  IC50: 207 nM
[2]
  IC50: 3220 nM
[3]
  IC50: 4330 nM
[4]
  IC50: 969 nM

## O=C(C1CCC1(F)F)N1C2CCC1CN(c1ncnn3cc(-c4cnn(C(F)F)c4)cc13)C2 (centres unmarked) [Example 11, (2,2-difluorocyclobutyl)(3-(6-(1-(difluoromethyl)-1H-pyrazol-4-yl)pyrrolo[2,1-f][1,2,4]triazin-4-yl)-3,8-diazabicyclo[3.2.1]octan-8-yl)methanone]
[1]
  IC50: 506 nM
[2]
  IC50: 6670 nM
[3]
  IC50: 8370 nM
[4]
  IC50: 1650 nM

## N#CC1CC(C(=O)N2C3CCC2CN(c2ncnn4cc(-c5cnn(C(F)F)c5)cc24)C3)C1 (centres unmarked) [Example 12, 3-(3-(6-(1-(difluoromethyl)-1H-pyrazol-4-yl)pyrrolo[2,1-f][1,2,4]triazin-4-yl)-3,8-diazabicyclo[3.2.1]octane-8-carbonyl)cyclobutane-1-carbonitrile]
[1]
  IC50: 656 nM
[2]
  IC50: 8350 nM
[3]
  IC50: 7960 nM
[4]
  IC50: 2980 nM

## CC1(C)C(C(=O)N2C3CCC2CN(c2ncnn4cc(-c5cnn(C(F)F)c5)cc24)C3)C1(F)F (centres unmarked) [Example 13, (2,2-difluoro-3,3-dimethylcyclopropyl)(3-(6-(1-(difluoromethyl)-1H-pyrazol-4-yl)pyrrolo[2,1-f][1,2,4]triazin-4-yl)-3,8-diazabicyclo[3.2.1]octan-8-yl)methanone]
[1]
  IC50: 688 nM
[2]
  IC50: 7220 nM
[3]
  IC50: 9150 nM
[4]
  IC50: 3360 nM

## Cn1cc(-c2cc3c(N4CC5CCC(C4)N5C(=O)C4CC4)ccnn3c2)cn1 [Example 15, cyclopropyl(3-(6-(1-methyl-1H-pyrazol-4-yl)pyrrolo[1,2-b]pyridazin-4-yl)-3,8-diazabicyclo[3.2.1]octan-8-yl)methanone]
[1]
  IC50: 13 nM
[2]
  IC50: 888 nM
[3]
  IC50: 376 nM
[4]
  IC50: 646 nM

## O=C(C1CC1)N1C2CCC1CN(c1ccnn3cc(-c4cnn(C(F)F)c4)cc13)C2 [Example 16, cyclopropyl(3-(6-(1-(difluoromethyl)-1H-pyrazol-4-yl)pyrrolo[1,2-b]pyridazin-4-yl)-3,8-diazabicyclo[3.2.1]octan-8-yl)methanone]
[1]
  IC50: 13.8 nM
[2]
  IC50: 1040 nM
[3]
  IC50: 257 nM
[4]
  IC50: 264 nM

## O=C([C@@H]1C[C@H]1F)N1C2CCC1CN(c1ccnn3cc(-c4cnn(C(F)F)c4)cc13)C2 [Example 17, (3-(6-(1-(difluoromethyl)-1H-pyrazol-4-yl)pyrrolo[1,2-b]pyridazin-4-yl)-3,8-diazabicyclo[3.2.1]octan-8-yl)((1S,2R)-2-fluorocyclopropyl)methanone]
[1]
  IC50: 1 nM
[2]
  IC50: 437 nM
[3]
  IC50: 36 nM
[4]
  IC50: 37 nM

## O=C([C@@H]1C[C@H]1F)N1C2CCC1CN(c1ccnn3cc(-c4cnn(C(F)(F)F)c4)cc13)C2 [Example 18, ((1S,2R)-2-fluorocyclopropyl)(3-(6-(1-(trifluoromethyl)-1H-pyrazol-4-yl)pyrrolo[1,2-b]pyridazin-4-yl)-3,8-diazabicyclo[3.2.1]octan-8-yl)methanone]
[1]
  IC50: 1.5 nM
[2]
  IC50: 391 nM
[3]
  IC50: 33 nM
[4]
  IC50: 38 nM

## O=C([C@@H]1CC1(F)F)N1C2CCC1CN(c1ccnn3cc(-c4cnn(C(F)(F)F)c4)cc13)C2 [Example 19, ((S)-2,2-difluorocyclopropyl)(3-(6-(1-(trifluoromethyl)-1H-pyrazol-4-yl)pyrrolo[1,2-b]pyridazin-4-yl)-3,8-diazabicyclo[3.2.1]octan-8-yl)methanone]
[1]
  IC50: 2.1 nM
[2]
  IC50: 518 nM
[3]
  IC50: 29 nM
[4]
  IC50: 34 nM

## O=C(C1CC1)N1C2CCC1CN(c1ccnn3cc(-c4cnn(C(F)(F)F)c4)cc13)C2 [Example 20, cyclopropyl(3-(6-(1-(trifluoromethyl)-1H-pyrazol-4-yl)pyrrolo[1,2-b]pyridazin-4-yl)-3,8-diazabicyclo[3.2.1]octan-8-yl)methanone]
[1]
  IC50: 30.2 nM
[2]
  IC50: 1860 nM
[3]
  IC50: 532 nM
[4]
  IC50: 356 nM

## O=C([C@@H]1CC1(F)F)N1C2CCC1CN(c1ccnn3cc(-c4cnn(C(F)F)c4)cc13)C2 [Example 21, ((S)-2,2-difluorocyclopropyl)(3-(6-(1-(difluoromethyl)-1H-pyrazol-4-yl)pyrrolo[1,2-b]pyridazin-4-yl)-3,8-diazabicyclo[3.2.1]octan-8-yl)methanone]
[1]
  IC50: 1.4 nM
[2]
  IC50: 565 nM
[3]
  IC50: 28 nM
[4]
  IC50: 39 nM

## Cn1cc(-c2cc3c(N4CC5CCC(C4)N5C(=O)[C@@H]4CC4(F)F)ccnn3c2)cn1 [Example 22, ((S)-2,2-difluorocyclopropyl)(3-(6-(1-methyl-1H-pyrazol-4-yl)pyrrolo[1,2-b]pyridazin-4-yl)-3,8-diazabicyclo[3.2.1]octan-8-yl)methanone]
[1]
  IC50: 1.8 nM
[2]
  IC50: 445 nM
[3]
  IC50: 32 nM
[4]
  IC50: 55 nM
